Assay results taken from ChEMBL document CHEMBL1240296, “Pharmacological inhibitors of glycogen synthase kinase 3” (Trends Pharmacol Sci, 2004).
One block for each molecule: values may come before it.

Tests used:
[1] = Inhibition of GSK3
[2] = target: Cyclin-dependent kinase 1/cyclin B (Homo sapiens, UniProt P06493); assay type: protein-complex assay
[3] = target: Glycogen synthase kinase-3 beta (Homo sapiens, UniProt P49841)
[4] = target: Cyclin-dependent kinase 2/cyclin A (Homo sapiens) (UniProt P24941+P20248+P78396); experiment: (§1) Inhibition of CDK2/cyclinA at 10 mM; assay type: protein-complex assay
[5] = target: Cyclin-dependent kinase 2/cyclin A (Homo sapiens, UniProt P24941); experiment: as §1; assay type: protein-complex assay
[6] = target: Glycogen synthase kinase-3 alpha (Homo sapiens, UniProt P49840)
Chain of Glycogen synthase kinase-3 alpha (P49840 whole entry): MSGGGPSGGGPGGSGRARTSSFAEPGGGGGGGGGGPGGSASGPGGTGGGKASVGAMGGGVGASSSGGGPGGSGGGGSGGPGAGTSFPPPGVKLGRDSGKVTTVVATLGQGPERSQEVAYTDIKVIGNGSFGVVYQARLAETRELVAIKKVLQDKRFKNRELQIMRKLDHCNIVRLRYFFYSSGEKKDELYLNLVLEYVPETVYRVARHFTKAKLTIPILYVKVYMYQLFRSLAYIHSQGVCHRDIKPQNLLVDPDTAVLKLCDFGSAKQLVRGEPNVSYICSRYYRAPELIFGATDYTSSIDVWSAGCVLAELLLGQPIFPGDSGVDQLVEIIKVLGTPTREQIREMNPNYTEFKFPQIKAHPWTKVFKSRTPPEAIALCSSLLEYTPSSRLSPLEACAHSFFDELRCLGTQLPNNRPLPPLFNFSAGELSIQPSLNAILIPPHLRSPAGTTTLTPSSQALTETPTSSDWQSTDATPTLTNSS

[7] = target: Glycogen synthase kinase-3 (Homo sapiens, UniProt P49840+P49841); assay type: protein assay

Chain of Glycogen synthase kinase-3 beta (P49841 whole entry): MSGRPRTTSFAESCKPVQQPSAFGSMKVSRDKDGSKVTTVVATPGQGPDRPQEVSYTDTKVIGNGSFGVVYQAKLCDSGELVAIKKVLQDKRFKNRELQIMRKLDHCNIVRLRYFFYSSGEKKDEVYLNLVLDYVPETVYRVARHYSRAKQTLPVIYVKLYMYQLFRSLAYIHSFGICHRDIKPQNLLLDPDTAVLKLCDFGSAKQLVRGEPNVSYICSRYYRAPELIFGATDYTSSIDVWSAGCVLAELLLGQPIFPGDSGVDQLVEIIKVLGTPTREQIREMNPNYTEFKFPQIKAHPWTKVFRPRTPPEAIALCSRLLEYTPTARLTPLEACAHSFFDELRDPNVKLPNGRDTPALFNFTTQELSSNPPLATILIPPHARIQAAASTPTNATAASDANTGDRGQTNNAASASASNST

SMILES: CN[C@@H]1C[C@H]2O[C@@](C)([C@@H]1OC)n1c3ccccc3c3c4c(c5c6ccccc6n2c5c31)C(=O)NC4 [STAUROSPORINE]
- IC50 [1]: 15 nM

SMILES: NC1N=Nc2nc3ccccc3nc21 (configuration not stated)
- IC50 [2]: 600 nM
- IC50 [1]: 1000 nM

SMILES: COc1ccc2c(c1)/C(=C/c1cnc[nH]1)C(=O)N2 [SU-9516]
- IC50 [1]: 330 nM

SMILES: Nc1cccc(-c2cc3c(Oc4cccc(O)c4)ncnc3[nH]2)c1
- IC50 [3]: 30 nM

SMILES: OCCCNc1cc(-c2ccnc(Nc3cccc(Cl)c3)n2)ccn1
- IC50 [1]: 10 nM

SMILES: Nc1nonc1-n1nnc(-c2nnc(-c3ccncc3)[nH]2)c1CN1CCCCC1
- IC50 [5]: > 250 µM

SMILES: Ic1cccc(CSc2nnc(-c3ccncc3)o2)c1
- IC50 [2]: > 10000 nM

SMILES: COc1cccc(-n2ncc3c(N/N=C/c4ccncc4)ncnc32)c1 [GW784752X]
- IC50 [3]: 16 nM

SMILES: CCCCc1c(-c2ccc(O)cc2)[nH]c2nccnc12 [ALOISINE A]
- IC50 [1]: 650 nM

SMILES: Nc1nc(NCCNc2ncc(-c3ncc[nH]3)c(-c3ccc(Cl)cc3Cl)n2)ccc1[N+](=O)[O-]
- IC50 [2]: 3700 nM
- IC50 [6]: 0.65 nM

SMILES: CN1CCN(c2ccc(NCCNc3ccc([N+](=O)[O-])c(N)n3)nc2-c2ccc(Cl)cc2Cl)C(=O)C1
- IC50 [7]: 4 nM

SMILES: CN(C)CCCn1cc(C2=C(c3c[nH]c4ccccc34)C(=O)NC2=O)c2ccccc21 [GF-109203]
- IC50 [2]: 2300 nM
- IC50 [3]: 190 nM

SMILES: CC(C)c1c(-c2ccc(Cl)cc2)[nH]c2nccnc12
- IC50 [2]: 850 nM
- IC50 [1]: 750 nM

Next, values leading:

- IC50 [3]: 36 nM
SMILES: O=C1NC(=O)C2=C1c1cn(c3ncccc13)CCCC1=CC=C(CCCn3cc2c2cccnc23)S1

- IC50 [1]: 450 nM
SMILES: CN1CC[C@H](c2c(O)cc(O)c3c(=O)cc(-c4ccccc4Cl)oc23)[C@H](O)C1 [ALVOCIDIB]

- IC50 [2]: 900 nM
SMILES: O=C1NC(=O)C(c2ccccc2[N+](=O)[O-])=C1Nc1ccc(O)c(Cl)c1

- IC50 [3]: 3 nM
SMILES: Cn1cc(C2=C(c3cn(CCCSC(=N)N)c4ccccc34)C(=O)NC2=O)c2ccccc21 [BISINDOLYLMALEIMIDE IX]

- IC50 [1]: 5 nM
SMILES: O=Nc1c(-c2c(O)[nH]c3ccccc23)[nH]c2ccccc12 [INDIRUBIN-3-MONOXIME]

- IC50 [3]: 34 nM
SMILES: O=C1NC(=O)C2=C1c1cn(c3ncccc13)CCOCCOCCOCCOCCn1cc2c2cccnc21

- inhibition [4]: 90%
SMILES: CN(C)CCC(=O)Nc1n[nH]c2nnc(-c3ccccc3)cc12

- IC50 [5]: > 10 µM
SMILES: O=C1NC(=O)C(c2cccc(Cl)c2)=C1Nc1ccc(Cl)c(C(=O)O)c1

- IC50 [2]: 550 nM
SMILES: Cn1cc(C2=C(c3ccc(Cl)cc3Cl)C(=O)NC2=O)c2ccccc21 [SB-216763]

- IC50 [2]: > 10000 nM
SMILES: Cn1sc(=O)n(Cc2ccccc2)c1=O
